Laboratory results as given in patent publication US20120245155A1, “FUSED HETEROCYCLIC COMPOUND HAVING AMINO GROUP” (Shionogi & Co., Ltd., priority 2009, published 2012).

Experiments:
hERG (IKr) = target: T1, hERG (IKr) (Homo sapiens, UniProt Q12809); experiment: hERG test; type: cell-based; details: pH 7.4, HEK293 cells expressing hERG channel, whole cell patch clamp, concentration not given, read-out: % inhibition relative to the tail peak current (IKr)
T1 construct: expressed in transfected cells; host or cells: HEK293 cells
T1 sequence (Q12809 whole entry): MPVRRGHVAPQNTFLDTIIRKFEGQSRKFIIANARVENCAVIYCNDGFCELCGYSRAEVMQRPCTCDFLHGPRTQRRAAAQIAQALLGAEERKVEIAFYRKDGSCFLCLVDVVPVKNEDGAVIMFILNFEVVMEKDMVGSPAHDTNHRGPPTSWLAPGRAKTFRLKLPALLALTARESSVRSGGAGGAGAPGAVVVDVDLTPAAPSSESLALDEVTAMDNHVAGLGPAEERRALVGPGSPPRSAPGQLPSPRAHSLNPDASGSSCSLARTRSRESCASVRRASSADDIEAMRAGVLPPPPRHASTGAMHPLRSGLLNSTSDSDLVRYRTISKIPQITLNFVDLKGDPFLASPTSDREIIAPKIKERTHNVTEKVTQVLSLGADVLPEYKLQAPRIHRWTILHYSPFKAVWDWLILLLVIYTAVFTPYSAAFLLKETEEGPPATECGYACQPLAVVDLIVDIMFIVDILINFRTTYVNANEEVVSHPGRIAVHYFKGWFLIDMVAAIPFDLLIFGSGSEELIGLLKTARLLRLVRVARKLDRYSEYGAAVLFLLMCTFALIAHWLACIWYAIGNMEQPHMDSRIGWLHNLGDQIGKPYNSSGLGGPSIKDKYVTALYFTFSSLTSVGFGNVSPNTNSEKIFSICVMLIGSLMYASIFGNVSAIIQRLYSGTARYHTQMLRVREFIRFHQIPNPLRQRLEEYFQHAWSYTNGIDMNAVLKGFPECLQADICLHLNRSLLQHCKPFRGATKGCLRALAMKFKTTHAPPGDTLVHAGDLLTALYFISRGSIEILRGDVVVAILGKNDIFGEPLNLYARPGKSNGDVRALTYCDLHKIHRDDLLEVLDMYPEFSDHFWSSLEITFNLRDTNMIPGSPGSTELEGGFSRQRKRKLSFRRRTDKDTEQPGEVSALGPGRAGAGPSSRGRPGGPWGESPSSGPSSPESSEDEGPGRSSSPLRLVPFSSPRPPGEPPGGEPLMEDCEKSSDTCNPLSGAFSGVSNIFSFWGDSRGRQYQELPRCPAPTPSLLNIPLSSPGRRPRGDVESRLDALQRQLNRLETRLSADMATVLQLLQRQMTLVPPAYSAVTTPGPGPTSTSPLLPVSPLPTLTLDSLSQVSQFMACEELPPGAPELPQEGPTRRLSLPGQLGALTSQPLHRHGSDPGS
Source text: For the purpose of assessing risk of an electrocardiogram QT interval prolongation, effects on delayed rectifier K+ current (IKr), which plays an important role in the ventricular repolarization process of the compound of the present invention, is studied using HEK293 cells expressing human ether-a-go-go related gene (hERG) channel.
After a cell was retained at a membrane potential of −80 mV by whole cell patch clamp method using an automated patch clamp system (PatchXpress 7000A, Axon Instruments Inc.), IKr induced by depolarization pulse stimulation at +40 mV for 2 seconds and, further, repolarization pulse stimulation at −50 mV for 2 seconds was recorded. […] From the recording IKr, an absolute value of the tail peak current was measured based on the current value at the resting membrane potential using analysis software (DataXpress ver. 1, Molecular Devices Corporation). Further, the % inhibition relative to the tail peak current before application of the test compound was calculated, and compared with the vehicle-applied group (0.1% dimethyl sulfoxide solution) to assess influence of the test compound on IKr.

[1] = test system: Neuroblastoma SH—SY5Y cells (SH/APPwt) with human wild-type β-APP excessively expressed; experiment: Measurement of β-amyloid (Aβ) production inhibitory effect in cell; type: cell-based; details: 24 hours incubation, Amyloid β 1-40 by HTRF, read-out: amount needed to inhibit Aβ production by 50% (IC50)
Protocol: Neuroblastoma SH—SY5Y cells (SH/APPwt) with human wild-type p-APP excessively expressed therein were prepared at 8×10^5 cells/mL, and 150 μl portions thereof were inoculated into each well of a 96-well culture plate (Falcon). The cells were cultured for 2 hours at 37° C. in a 5% gaseous carbon dioxide incubator. Then, a solution which had been preliminarily prepared by adding and suspending the test compound (DMSO (dimethyl sulfoxide) solution) so as to be 2 μl/50 μl medium was added to the cell sap. Namely, the final DMSO concentration was 1%, and the amount of the cell culture was 200 μl. After the incubation was performed for 24 hours from the addition of the test compound, 100 μl of the culture supernatant was collected from each fraction. The amount of the Aβ in each fraction was measured.
The Aβ amount was measured as follows. 10 μl of a homogeneous time resolved fluorescence (HTRF) measurement reagent (Amyloid β 1-40 peptide; IBA Molecular Holding, S. A.) and 10 μl of the culture supernatant were put into a 384-well half area microplate (black microplate, Costar) and mixed with each other, and then left standing overnight at 4° C. while the light was shielded. Then, the fluorescence intensity (excitation wavelength: 337 nm, measurement wavelength: 620 nm and 665 nm) was measured with a Wallac 1420 multilabel counter (Perkin Elmer life sciences). The Aβ amount was determined from the count rate at each measurement wavelength (10000× Count 665/Count 620), and the amount needed to inhibit Aβ production by 50% (IC50) was calculated from at least six different dosages.

IC50 [1]: ≤ 1000 nM
SMILES: NC1=NC2(c3cc(-c4cncnc4)ccc3F)CCCC2CO1 (racemic) [Compound I-39]
inhibition at 10 min (hERG (IKr)): 19.3%
